Measurements: patent US20050244966A1, “Insulin producing cells” (Ramot At Tel Aviv University Ltd., priority 2003, published 2005)

System: FH-B-TPN cells
Experiment: Insulin content of FH-B-TPN cells (RIA/ELISA of cell extracts)
Type: cell-based, human
Conditions: for Insulin content / Fold increase (insulin content): FH-B-TPN cells; for Insulin content / Effect on insulin content of FH-B-TPN cells (in words): RIA; for Fold increase (insulin content): vs CM; for Effect on insulin content of FH-B-TPN cells (in words): in CM, compared with regular medium or with Act-A alone
Protocol: FH cells were isolated and cultured as described (19), in Dulbecco's modified Eagle's medium containing 25 mM glucose and supplemented with 10% fetal bovine serum (FBS), 100 U/ml penicillin, 100 μg/ml streptomycin, 5 μM hydrocortisone, and 5 μg/ml insulin. A subclone of FH cells that was stably transduced with hTERT, designated FH-B-hTERT (FH-B), was cultured in the same medium, as described (20). FH-B cells transduced with the Pdx1 gene (see below), designated FH-B-TPN cells, were maintained in the same culture medium, with the exception of hydrocortisone and insulin (complete medium CM). For incubation in serum-free medium, the cells were placed in DMEM containing antibiotics, in the presence of 100 ng/ml insulin, 55 ng/ml transferrin, and 50 pg/ml selenium (ITS, Sigma). For all experiments activin A (Cytolab/PreproTech Asia, Rehovot, Israel) was added at a final concentration of 4 nM. except for those aimed at promoting differentiation of FH-B-TPN cells towards the beta-cell phenotype. There, addition of Act-A, as well as betacellulin (BTC, R&D Systems, Minneapolis, Minn.), nicotinamide (NA), exendin-4, and hepatocyte growth factor (HGF) (the last 3 compounds from Sigma-Aldrich) was at concentrations detailed herein below.
Insulin secretion from FH-B-TPN cells was measured by static incubation as previously described (2). Cells were plated in 24-well plates at 10^5 cells per well. The cells were preincubated for 1 hour in Krebs-Ringer buffer (KRB), followed by incubation for the indicated period of time in KRB containing 0.5 mM 1-isobutyl 3-methylxanthine (IBMX) and glucose at various concentrations. The cells were then extracted in acetic acid, and the amount of insulin in the buffer and cell extract was determined by radioimmunoassay (RIA) using the INSIK-5 kit (DiaSorin, Vercelli, Italy) according to the manufacturer. This assay has <20% crossreactivity with proinsulin. In addition, insulin content was determined using an ELISA kit (Diagnostic Systems Laboratories, Webster, Tex. or (Mercodia, Uppsala, Sweden), which recognizes only mature insulin. Insulin content was normalized to total cellular protein, measured by the Bio-Rad (Hercules, Calif.) Protein Assay kit. Human C-peptide in the cell extract was determined using a RIA kit (DiaSorin, Vercelli, Italy) or ELISA kit (Mercodia, Uppsala, Sweden) according to the manufacturers.

Row | Compound | Insulin content (5 mM in CM (6 d)) | Fold increase (insulin content) (5 mM in CM (6 d)) | Effect on insulin content of FH-B-TPN cells (in words) | Insulin content (2-8 nM in CM (6 d)) | Fold increase (insulin content) (2-8 nM in CM (6 d))
1 | NC(=O)c1cccnc1 [NA, nicotinamide, reference compound] | 122 ± 20 ng/10^6 cells | 0.6 | decrease |  | 
2 | exendin-4 [reference compound] |  |  | decrease | 0 ng/10^6 cells | 0
